Source: patent US9187472B2 (AbbVie Inc., priority 2012, dated 2015)

Assays:
[1] = system: PC3 cells; experiment: NAMPT Cell Proliferation Assay; format: cell-based; conditions: Homo sapiens, PC-3, 120 h, 5 days incubation, cell viability by Cell Titer Glo
Method in brief: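 PC3 cells were plated at 500 cells/well in RPMI with 10% heat-inactivated FBS, left to attach overnight, then given compounds in 10-fold dilutions from 10 μM to 1×10^−5 μM. After 5 days at 37° C and 5% CO2, viability was read by luminescence and IC50s came from sigmoidal fits of percent inhibition.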

[2] = molecular target: NAMPT (Homo sapiens, UniProt P43490); experiment: TR-FRET Binding Assay of NAMPT with PRPP; conditions: with 200 μM PRPP and 2.5 mM ATP; 2 nM NAMPT, 2 nM probe, 16 hours equilibration
Method in brief: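 Run in the presence of substrates (200 μM PRPP, 2.5 mM ATP) with final 2 nM NAMPT, 2 nM probe, 1 nM Tb-anti-His antibody and 2% DMSO. Mixtures equilibrated 16 h before TR-FRET measurement so test compounds could be enzymatically modified.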

[3] = molecular target: NAMPT (human, recombinant, C-terminally His-tagged) (Homo sapiens, UniProt P43490); experiment: Time-Resolved Fluorescence Resonance Energy Transfer (TR-FRET) Binding Assay of NAMPT; conditions: without substrates; 6.8 nM NAMPT, 200 nM probe, 3 hours equilibration
Method in brief: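 Probe displacement by compound was measured with 6.8 nM NAMPT, 200 nM Oregon Green 488-conjugated nicotinamide-competitive inhibitor probe and 1 nM Tb-anti-His antibody in 50 mM HEPES pH 7.5, 100 mM NaCl, 10 mM MgCl2, 1 mM DTT, 1% glycerol, 2% DMSO (final). After 3 h at room temperature, TR-FRET was read; IC50 from four-parameter logistic fit.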

NAMPT, sequence (P43490 whole entry): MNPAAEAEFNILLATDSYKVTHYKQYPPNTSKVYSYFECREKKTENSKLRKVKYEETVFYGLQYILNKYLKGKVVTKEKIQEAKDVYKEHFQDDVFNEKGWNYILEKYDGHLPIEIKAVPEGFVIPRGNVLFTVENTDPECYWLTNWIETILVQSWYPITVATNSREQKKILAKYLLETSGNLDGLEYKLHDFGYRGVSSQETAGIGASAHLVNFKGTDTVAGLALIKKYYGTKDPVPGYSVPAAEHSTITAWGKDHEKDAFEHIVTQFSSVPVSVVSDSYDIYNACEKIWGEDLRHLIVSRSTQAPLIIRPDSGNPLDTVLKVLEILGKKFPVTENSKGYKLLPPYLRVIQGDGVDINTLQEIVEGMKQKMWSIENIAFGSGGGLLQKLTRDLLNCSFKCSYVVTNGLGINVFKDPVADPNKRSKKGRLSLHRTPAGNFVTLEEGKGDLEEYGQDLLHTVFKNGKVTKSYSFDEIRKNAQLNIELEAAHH
NAMPT (human, recombinant, C-terminally His-tagged), sequence (P43490 whole entry): as above

IC50 [1] [nM]	IC50 [2] [nM]	IC50 [3] [nM]	SMILES
7.75	0.283	349	CC(C)[C@@H]1COC(=O)N1c1ncc(C(=O)NCc2ccn3ccnc3c2)s1 [Example 181, N-(imidazo[1,2-a]pyridin-7-ylmethyl)-2-[(4R)-2-oxo-4-(propan-2-yl)-1,3-oxazolidin-3-yl]-1,3-thiazole-5-carboxamide]
5.59	0.903	79.4	O=C(NCc1ccc2nccn2c1)c1ccc(-c2cnn(CC3CCCO3)c2)s1 (stereo not drawn) [Example 219, N-(imidazo[1,2-a]pyridin-6-ylmethyl)-5-[1-(tetrahydrofuran-2-ylmethyl)-1H-pyrazol-4-yl]thiophene-2-carboxamide]
60.9	0.338	218	Cc1cc(C(=O)N2CCC(c3ccc(C(=O)NCc4ccn5ccnc5c4)cc3)CC2)c(C)o1 [Example 519, 4-{1-[(2,5-dimethylfuran-3-yl)carbonyl]piperidin-4-yl}-N-(imidazo[1,2-a]pyridin-7-ylmethyl)benzamide]
1.37	0.4	139	CC(C)(O)Cn1cc(-c2ccc(C(=O)NCc3ccn4ccnc4c3)s2)cn1 [Example 182, 5-[1-(2-hydroxy-2-methylpropyl)-1H-pyrazol-4-yl]-N-(imidazo[1,2-a]pyridin-7-ylmethyl)thiophene-2-carboxamide]
5.26	0.705	98.4	O=C(NCc1ccn2ccnc2c1)c1ccc(C2CCN(C(=O)C3CCCC3)C2)s1 (stereo not drawn) [Example 769, 5-[1-(cyclopentylcarbonyl)pyrrolidin-3-yl]-N-(imidazo[1,2-a]pyridin-7-ylmethyl)thiophene-2-carboxamide]
18.6	0.396	129	CC(C)OCC(=O)N1CC(Oc2ccc(NC(=O)NCc3ccn4ccnc4c3)cc2)C1 [Example 429, 1-(imidazo[1,2-a]pyridin-7-ylmethyl)-3-[4-({1-[(propan-2-yloxy)acetyl]azetidin-3-yl}oxy)phenyl]urea]
180	0.723	375	O=C(NCc1ccn2ccnc2c1)c1ccc(C2CN(S(=O)(=O)C3CC3)C2)cc1 [Example 568, 4-[1-(cyclopropylsulfonyl)azetidin-3-yl]-N-(imidazo[1,2-a]pyridin-7-ylmethyl)benzamide]
52.3	0.786	527	O=C(NCc1ccn2ccnc2c1)c1ccc(C2CCN(C(=O)c3cc(F)cc(F)c3)C2)cc1 (stereo not drawn) [Example 599, 4-[1-(3,5-difluorobenzoyl)pyrrolidin-3-yl]-N-(imidazo[1,2-a]pyridin-7-ylmethyl)benzamide]
100	0.509	628	O=C(NCc1ccn2ccnc2c1)c1cnc(C2CCN(C(=O)c3ccccc3)C2)s1 (stereo not drawn) [Example 807, 2-(1-benzoylpyrrolidin-3-yl)-N-(imidazo[1,2-a]pyridin-7-ylmethyl)-1,3-thiazole-5-carboxamide]
9.65	1.56	192	O=C(NCc1ccc2nccn2c1)c1ccc(C2=CCN(C(=O)CCC3CCCO3)CC2)cc1 (stereo not drawn) [Example 96, N-(imidazo[1,2-a]pyridin-6-ylmethyl)-4-{1-[3-(tetrahydrofuran-2-yl)propanoyl]-1,2,3,6-tetrahydropyridin-4-yl}benzamide]
7.28	0.357	123	CC1(C(=O)N2CC(c3ccc(C(=O)NCc4ccn5ccnc5c4)cc3)C2)CCCCC1 [Example 665, N-(imidazo[1,2-a]pyridin-7-ylmethyl)-4-{1-[(1-methylcyclohexyl)carbonyl]azetidin-3-yl}benzamide]
52.2	0.209	340	O=C(Nc1ccc(C2CCN(C(=O)C3CCOCC3)CC2)cc1)Nc1ccc2nccn2c1 [Example 109, 1-imidazo[1,2-a]pyridin-6-yl-3-{4-[1-(tetrahydro-2H-pyran-4-ylcarbonyl)piperidin-4-yl]phenyl}urea]
19.4	5.71	228	O=C(CN1CCOCC1)Nc1ccc(C(=O)NCc2ccc3nccn3c2)cc1 [Example 80, N-(imidazo[1,2-a]pyridin-6-ylmethyl)-4-[(morpholin-4-ylacetyl)amino]benzamide]
> 10000	10.8	3250	CC(C)C(=O)N1CCC(c2ccc(C(=O)NCc3ccn4c(Cl)cnc4c3)cc2)CC1 [Example 575, N-[(3-chloroimidazo[1,2-a]pyridin-7-yl)methyl]-4-[1-(2-methylpropanoyl)piperidin-4-yl]benzamide]
6630	0.921	2680	O=C(Nc1ccc(C(=O)Nc2ccccc2)cc1)Nc1ccc2nccn2c1 [Example 19, 4-[(imidazo[1,2-a]pyridin-6-ylcarbamoyl)amino]-N-phenylbenzamide]
5.8	0.907	91.1	O=C(NCc1ccn2ccnc2c1)Nc1ccc(C2CCN(C(=O)CC3CC3)CC2)cc1 [Example 712, 1-{4-[1-(cyclopropylacetyl)piperidin-4-yl]phenyl}-3-(imidazo[1,2-a]pyridin-7-ylmethyl)urea]
7.06	2.36	29.4	CC1(Cn2cc(-c3ccc(C(=O)NCc4ccc5ncnn5c4)s3)cn2)CCOCC1 [Example 622, 5-{1-[(4-methyltetrahydro-2H-pyran-4-yl)methyl]-1H-pyrazol-4-yl}-N-([1,2,4]triazolo[1,5-a]pyridin-6-ylmethyl)thiophene-2-carboxamide]
1.19	0.71	28.9	COc1ccccc1C(=O)N1CCC(c2ccc(C(=O)NCc3ccn4ccnc4c3)s2)C1 (stereo not drawn) [Example 760, N-(imidazo[1,2-a]pyridin-7-ylmethyl)-5-[1-(2-methoxybenzoyl)pyrrolidin-3-yl]thiophene-2-carboxamide]
55.1	0.392	713	O=C(NCc1ccn2ccnc2c1)c1ccc(C2CN(C(=O)CC3CCOCC3)C2)cc1 [Example 551, N-(imidazo[1,2-a]pyridin-7-ylmethyl)-4-[1-(tetrahydro-2H-pyran-4-ylacetyl)azetidin-3-yl]benzamide]
130	0.51	195	O=C(NCc1ccn2ccnc2c1)c1ccc(C2CN(C(=O)c3cccc(Cl)c3)C2)cc1 [Example 646, 4-[1-(3-chlorobenzoyl)azetidin-3-yl]-N-(imidazo[1,2-a]pyridin-7-ylmethyl)benzamide]
70.1	0.244	422	O=C(NCc1ccn2ccnc2c1)Nc1ccc(OC2CCN(C(=O)C3CCOCC3)CC2)cc1 [Example 450, 1-(imidazo[1,2-a]pyridin-7-ylmethyl)-3-(4-{[1-(tetrahydro-2H-pyran-4-ylcarbonyl)piperidin-4-yl]oxy}phenyl)urea]
22.9	0.212	110	O=C(NCc1ccn2ccnc2c1)Nc1ccc(OC2CCN(C(=O)c3ccccc3)CC2)cc1 [Example 445, 1-{4-[(1-benzoylpiperidin-4-yl)oxy]phenyl}-3-(imidazo[1,2-a]pyridin-7-ylmethyl)urea]
25.3	5.42	114	CC(C)(O)Cn1cc(-c2ccc(C(=O)NCc3ccc4ncnn4c3)s2)cn1 [Example 621, 5-[1-(2-hydroxy-2-methylpropyl)-1H-pyrazol-4-yl]-N-([1,2,4]triazolo[1,5-a]pyridin-6-ylmethyl)thiophene-2-carboxamide]
0.499	0.603	14.2	O=C(NCc1ccn2ccnc2c1)c1ccc(C2CCN(C(=O)c3cccc(Cl)c3)C2)s1 (stereo not drawn) [Example 779, 5-[1-(3-chlorobenzoyl)pyrrolidin-3-yl]-N-(imidazo[1,2-a]pyridin-7-ylmethyl)thiophene-2-carboxamide]
7.43	0.266	59.1	O=C(CC1CCCC1)Nc1ccc(C(=O)NCc2ccc3nccn3c2)c(F)c1 [Example 462, 4-[(cyclopentylacetyl)amino]-2-fluoro-N-(imidazo[1,2-a]pyridin-6-ylmethyl)benzamide]
31.2	0.24	192	O=C(NCc1ccn2ccnc2c1)c1ccc(-c2cnn(CC3CCOC3)c2)o1 (stereo not drawn) [Example 478, N-(imidazo[1,2-a]pyridin-7-ylmethyl)-5-[1-(tetrahydrofuran-3-ylmethyl)-1H-pyrazol-4-yl]furan-2-carboxamide]
3.5	0.194	16.7	O=C(NCc1ccn2ccnc2c1)Nc1ccc(C2CN(C(=O)c3ccccc3)C2)cc1 [Example 455, 1-[4-(1-benzoylazetidin-3-yl)phenyl]-3-(imidazo[1,2-a]pyridin-7-ylmethyl)urea]
5480	2.66	1110	O=C(NCc1ccn2ccnc2c1)c1cnc(C2CCN(c3ccccc3)CC2)s1 [Example 688, N-(imidazo[1,2-a]pyridin-7-ylmethyl)-2-(1-phenylpiperidin-4-yl)-1,3-thiazole-5-carboxamide]
